# Test results from PubChem BioAssay (NCI).
#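 A five-concentration, 48-hour dose response in 96-well plates underlies each endpoint, interpolated linearly between surrounding concentrations. At the TGI there is no net growth.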
# Assays:
# Assay in all cases: NCI-60 cell line screen, 48 h
# 786-0 renal = tested on: 786-0 renal
# A498 renal = tested on: A498 renal
# A549 NSCLC = tested on: A549 NSCLC
# ACHN renal = tested on: ACHN renal
# CAKI-1 renal = tested on: CAKI-1 renal
# CCRF-CEM leukemia = tested on: CCRF-CEM leukemia
# COLO 205 colon = tested on: COLO 205 colon
# DLD-1 colon = tested on: DLD-1 colon
# DMS 114 small cell lung = tested on: DMS 114 small cell lung
# DMS 273 small cell lung = tested on: DMS 273 small cell lung
# EKVX NSCLC = tested on: EKVX NSCLC
# HCC-2998 colon = tested on: HCC-2998 colon
# HCT-116 colon = tested on: HCT-116 colon
# HCT-15 colon = tested on: HCT-15 colon
# HL-60(TB) leukemia = tested on: HL-60(TB) leukemia
# HOP-18 NSCLC = tested on: HOP-18 NSCLC
# HOP-62 NSCLC = tested on: HOP-62 NSCLC
# HOP-92 NSCLC = tested on: HOP-92 NSCLC
# HT29 colon = tested on: HT29 colon
# IGROV1 ovarian = tested on: IGROV1 ovarian
# K-562 leukemia = tested on: K-562 leukemia
# KM12 colon = tested on: KM12 colon
# KM20L2 colon = tested on: KM20L2 colon
# LOX IMVI melanoma = tested on: LOX IMVI melanoma
# LXFL 529 NSCLC = tested on: LXFL 529 NSCLC
# M14 melanoma = tested on: M14 melanoma
# MALME-3M melanoma = tested on: MALME-3M melanoma
# MOLT-4 leukemia = tested on: MOLT-4 leukemia
# NCI-H226 lung = tested on: NCI-H226 lung
# NCI-H23 lung = tested on: NCI-H23 lung
# NCI-H460 lung = tested on: NCI-H460 lung
# NCI-H522 lung = tested on: NCI-H522 lung
# OVCAR-3 ovarian = tested on: OVCAR-3 ovarian
# OVCAR-4 ovarian = tested on: OVCAR-4 ovarian
# OVCAR-5 ovarian = tested on: OVCAR-5 ovarian
# OVCAR-8 ovarian = tested on: OVCAR-8 ovarian
# RPMI-8226 leukemia = tested on: RPMI-8226 leukemia
# RXF 393 renal = tested on: RXF 393 renal
# RXF-631 renal = tested on: RXF-631 renal
# SF-268 CNS = tested on: SF-268 CNS
# SF-295 CNS = tested on: SF-295 CNS
# SF-539 CNS = tested on: SF-539 CNS
# SK-MEL-2 melanoma = tested on: SK-MEL-2 melanoma
# SK-MEL-28 melanoma = tested on: SK-MEL-28 melanoma
# SK-MEL-5 melanoma = tested on: SK-MEL-5 melanoma
# SK-OV-3 ovarian = tested on: SK-OV-3 ovarian
# SN12C renal = tested on: SN12C renal
# SNB-19 CNS = tested on: SNB-19 CNS
# SNB-75 CNS = tested on: SNB-75 CNS
# SR leukemia = tested on: SR leukemia
# SW-620 colon = tested on: SW-620 colon
# TK-10 renal = tested on: TK-10 renal
# U251 CNS = tested on: U251 CNS
# UACC-257 melanoma = tested on: UACC-257 melanoma
# UACC-62 melanoma = tested on: UACC-62 melanoma
# UO-31 renal = tested on: UO-31 renal
# XF 498 CNS = tested on: XF 498 CNS
# M19-MEL melanoma = tested on: M19-MEL melanoma
# SNB-78 CNS = tested on: SNB-78 CNS
compound,measurement,setting,value
N#CC12C3C4CC5C6C4C1C6C(O)(C53)N2Cc1ccccc1 (stereo not given),TGI,786-0 renal,> 100 µM
same,TGI,A498 renal,> 100 µM
same,TGI,A549 NSCLC,> 100 µM
same,TGI,ACHN renal,> 100 µM
same,TGI,CAKI-1 renal,> 100 µM
same,TGI,CCRF-CEM leukemia,> 100 µM
same,TGI,COLO 205 colon,> 100 µM
same,TGI,DLD-1 colon,> 100 µM
same,TGI,DMS 114 small cell lung,> 100 µM
same,TGI,DMS 273 small cell lung,> 100 µM
same,TGI,EKVX NSCLC,> 100 µM
same,TGI,HCC-2998 colon,> 100 µM
same,TGI,HCT-116 colon,> 100 µM
same,TGI,HCT-15 colon,> 100 µM
same,TGI,HL-60(TB) leukemia,> 100 µM
same,TGI,HOP-18 NSCLC,> 100 µM
same,TGI,HOP-62 NSCLC,> 100 µM
same,TGI,HOP-92 NSCLC,> 100 µM
same,TGI,HT29 colon,> 100 µM
same,TGI,IGROV1 ovarian,> 100 µM
same,TGI,K-562 leukemia,> 100 µM
same,TGI,KM12 colon,> 100 µM
same,TGI,KM20L2 colon,> 100 µM
same,TGI,LOX IMVI melanoma,> 100 µM
same,TGI,LXFL 529 NSCLC,> 100 µM
same,TGI,M14 melanoma,> 100 µM
same,TGI,MALME-3M melanoma,> 100 µM
same,TGI,MOLT-4 leukemia,> 100 µM
same,TGI,NCI-H226 lung,> 100 µM
same,TGI,NCI-H23 lung,> 100 µM
same,TGI,NCI-H460 lung,> 100 µM
same,TGI,NCI-H522 lung,> 100 µM
same,TGI,OVCAR-3 ovarian,> 100 µM
same,TGI,OVCAR-4 ovarian,> 100 µM
same,TGI,OVCAR-5 ovarian,> 100 µM
same,TGI,OVCAR-8 ovarian,> 100 µM
same,TGI,RPMI-8226 leukemia,> 100 µM
same,TGI,RXF 393 renal,> 100 µM
same,TGI,RXF-631 renal,> 100 µM
same,TGI,SF-268 CNS,> 100 µM
same,TGI,SF-295 CNS,> 100 µM
same,TGI,SF-539 CNS,> 100 µM
same,TGI,SK-MEL-2 melanoma,> 100 µM
same,TGI,SK-MEL-28 melanoma,> 100 µM
same,TGI,SK-MEL-5 melanoma,> 100 µM
same,TGI,SK-OV-3 ovarian,> 100 µM
same,TGI,SN12C renal,> 100 µM
same,TGI,SNB-19 CNS,> 100 µM
same,TGI,SNB-75 CNS,> 100 µM
same,TGI,SR leukemia,> 100 µM
same,TGI,SW-620 colon,> 100 µM
same,TGI,TK-10 renal,> 100 µM
same,TGI,U251 CNS,> 100 µM
same,TGI,UACC-257 melanoma,> 100 µM
same,TGI,UACC-62 melanoma,> 100 µM
same,TGI,UO-31 renal,> 100 µM
same,TGI,XF 498 CNS,> 100 µM
CC1NOC(=O)C1N=Nc1ccccc1Cl (stereo not given),TGI,786-0 renal,> 100 µM
same,TGI,A498 renal,49.3 µM
same,TGI,A549 NSCLC,> 100 µM
same,TGI,ACHN renal,> 100 µM
same,TGI,CAKI-1 renal,> 100 µM
same,TGI,CCRF-CEM leukemia,> 100 µM
same,TGI,COLO 205 colon,> 100 µM
same,TGI,DLD-1 colon,> 100 µM
same,TGI,DMS 114 small cell lung,> 100 µM
same,TGI,EKVX NSCLC,> 100 µM
same,TGI,HCC-2998 colon,> 100 µM
same,TGI,HCT-116 colon,> 100 µM
same,TGI,HL-60(TB) leukemia,52.2 µM
same,TGI,HOP-18 NSCLC,> 100 µM
same,TGI,HOP-62 NSCLC,> 100 µM
same,TGI,HOP-92 NSCLC,54.6 µM
same,TGI,IGROV1 ovarian,> 100 µM
same,TGI,K-562 leukemia,> 100 µM
same,TGI,KM12 colon,> 100 µM
same,TGI,KM20L2 colon,> 100 µM
same,TGI,LOX IMVI melanoma,> 100 µM
same,TGI,LXFL 529 NSCLC,> 100 µM
same,TGI,M14 melanoma,> 100 µM
same,TGI,M19-MEL melanoma,60.4 µM
same,TGI,MALME-3M melanoma,65.7 µM
same,TGI,NCI-H23 lung,> 100 µM
same,TGI,NCI-H460 lung,> 100 µM
same,TGI,NCI-H522 lung,34.2 µM
same,TGI,OVCAR-3 ovarian,> 100 µM
same,TGI,OVCAR-4 ovarian,> 100 µM
same,TGI,OVCAR-5 ovarian,> 100 µM
same,TGI,OVCAR-8 ovarian,> 100 µM
same,TGI,RPMI-8226 leukemia,54.7 µM
same,TGI,RXF 393 renal,> 100 µM
same,TGI,RXF-631 renal,> 100 µM
same,TGI,SF-268 CNS,> 100 µM
same,TGI,SF-295 CNS,> 100 µM
same,TGI,SF-539 CNS,> 100 µM
same,TGI,SK-MEL-2 melanoma,> 100 µM
same,TGI,SK-MEL-28 melanoma,> 100 µM
same,TGI,SK-MEL-5 melanoma,32.9 µM
same,TGI,SK-OV-3 ovarian,94.4 µM
same,TGI,SN12C renal,> 100 µM
same,TGI,SNB-19 CNS,> 100 µM
same,TGI,SNB-75 CNS,62.4 µM
same,TGI,SNB-78 CNS,> 100 µM
same,TGI,SW-620 colon,> 100 µM
same,TGI,TK-10 renal,> 100 µM
same,TGI,U251 CNS,> 100 µM
same,TGI,UACC-257 melanoma,47 µM
same,TGI,UACC-62 melanoma,> 100 µM
same,TGI,UO-31 renal,34.5 µM
same,TGI,XF 498 CNS,> 100 µM
